# Key:
# [1] = test system: pediatric patients diagnosed with ADHD combined type; assay: Open-label study of memantine in pediatric ADHD combined type: CGI-ADHD-S; type: in vivo, human; details: Cohort 2, OC analysis, patients who completed the evaluation, end of 8 weeks; 100% moderately or markedly ill at baseline
# Method: The Clinical Global Impression-ADHD-Severity (CGI-S) is a 7-point scale (1 [not ill] to 7 [extremely ill]) to be assessed by the Investigator at Screening (part 1.1), Baseline, and from two to eight times during Visits 3 to 10, or upon study discontinuation.
# (§1) Design. This clinical trial was conducted as an open-label, single center, dose-finding outpatient study assessing memantine in pediatric patients diagnosed with ADHD combined type (DSM-IV-TR™ criteria). ADHD combined type is characterized by the presence of significant inattentive and hyperactive/impulsive symptomotology.
# (§2) Patient Population. The study enrolled sixteen (16) male or female outpatients between the ages of 6 and 12 years, mean age of 8 years, diagnosed with ADHD combined type by DSM-IV-TR™ criteria based on clinical evaluation and a semi-structured interview, the Schedule for Affective Disorders and Schizophrenia for School-Age Pediatric patients-Present and Lifetime (K-SADS-PL).
# Dosages. Sixteen (16) outpatients with a diagnosis of ADHD combined type received treatment with memantine for a total of 8 weeks. Patients were enrolled in to two groups of 8 patients each, Cohort 1 and Cohort 2. Dose adjustments were permitted for patients experiencing dose-limiting adverse events. […]
# [2] = test system: pediatric patients diagnosed with ADHD combined type; assay: Open-label ADHD study: overall efficacy, tolerability and patient disposition; type: in vivo, human
# Method: (§3) The primary objective of this study was to provide preliminary safety and tolerability evaluations of memantine in pediatric patients with ADHD combined type. The secondary objectives of the study were to evaluate the pharmacokinetics of memantine in this patient population, and to provide preliminary evaluations of efficacy on effect based on a 8-week administration of memantine.
# as §1
# (§4) Dosages. Sixteen (16) outpatients with a diagnosis of ADHD combined type received treatment with memantine for a total of 8 weeks. Patients were enrolled in to two groups of 8 patients each, Cohort 1 and Cohort 2. Dose adjustments were permitted for patients experiencing dose-limiting adverse events. For Cohort 1 patients, treatment consisted of a 4 week titration period from a starting dose of 2.4 mg/day at the start of week 0, to 4.8 mg/day at the start of week 1, to 7.2 mg/day at the start of Week 2 to a maximum dose of 10 mg/day at the start of week 3, with a maintenance dose of 10 mg/day continuing to the end of Week 8. For Cohort 2 patients, treatment consisted of a 4-week titration period from a starting dose of 4.8 mg/day at the start of Week 0, to 10 mg/day at the start of Week 1, to 14.8 mg/day at the start of Week 2, to a maximum dose of 20 mg/day at the start of Week 3, with a maintenance dose of 20 mg/day continuing to the end of Week 8.
# (§5) Patients who missed 2 consecutive visits were discontinued from the study. […] The “Safety Population” consisted of all patients who took at least one dose of study medication. The “Intent-to-Treat (ITT) Population” consisted of all patients in the safety population with at least one post baseline efficacy assessment of ADHD-IV-RS or CGI-ADHD-S. ADHD-IV-RS or CGI-ADHD-S were administered 4 times per patient, once at Screening, once at baseline, once at the end of Week 4 and once at the end of Week 8. […] Those patients unable to tolerate the minimum daily dose after the Week 1 of dosing were discontinued from the study without replacement.
# Adverse events. Adverse event (AE) monitoring was performed at all study visits except Screening, including early termination. An AE is any untoward medical occurrence in a patient or clinical investigation subject administered a pharmaceutical product. It is not necessary that the AE have a causal relationship to treatment with the product.
# An AE therefore is any unfavorable and unintended sign (for example, a clinically significant abnormal laboratory finding) symptom, or disease temporally associated with the use of study medication, whether or not considered related to study medication. […] An AE occurring during the open-label treatment period is counted as a treatment-emergent AE (TEAE) if it is not present prior to the first dose of study medication or if it is present prior to the first dose of study medication but increases in severity following the first dose of study medication.
# The number (percentage) of patients with TEAEs were tabulated by body system and preferred term. Within a specific category (i.e., a specific body system or preferred term), the patient was counted only once if the patient had more than one event reported. […]
# [3] = cited from earlier work
# [4] = aqueous media; cited from earlier work
# [5] = test system: cytochrome P-450 (CYP 450) isoenzymes; details: in vitro; cited from earlier work
# NMDA receptor = details: uncompetitive antagonist; cited from earlier work
# [6] = test system: pediatric patients diagnosed with ADHD combined type; assay: Open-label study of memantine in pediatric ADHD combined type: ADHD-IV-RS; type: in vivo, human; details: for ADHD-IV-RS change from baseline, Week 4 (mean) / ADHD-IV-RS change from baseline, Week 8 (mean ± SD) / ADHD-IV-RS score, Week 4 (mean ± SD) / ADHD-IV-RS score, Week 8 (mean ± SD) / ADHD-IV-RS change from baseline, Week 4 (mean ± SD): ITT population
# From the text: The Attention Deficit/Hyperactivity Disorder Rating Scale, Fourth Edition-Parent Version (ADHD-IV-RS) assesses each of the 18 individual criteria symptoms of ADHD in DSM-IV-TR™ on a severity grid (0=not present, 3=severe; overall minimum score=0, maximum score=54) (DuPaul et al., ADHD Rating Scale-IV: Checklists, Norms, and Clinical Interpretations 1998. New York: The Guilford Press). Inattention symptoms comprise the odd-numbered items, and hyperactive-impulsive symptoms are represented by the even-numbered items. The scale takes approximately 10 to 15 minutes to complete. […] It is to be completed by the patient's parent or legal guardian at Screening (part 1.1), Baseline, and from two to eight times during Visits 3 to 10, or upon study discontinuation.
# as §3, §1, §2, §4, §5
# Efficacy parameters used for evaluation were the ADHD-IV-RS, CGI-ADHD-S, CCPT-II, Woodcock Johnson III reading and math fluency tests, and the Stroop test, described above.
# The primary analysis for each efficacy parameter was based on observed cases. Only patients completing the evaluation were included in the OC analysis, missing data were not imputed. A last observation carried forward (LOCF) analysis was also performed for each efficacy assessment. […]
# [7] = test system: patients with moderate to severe dementia of the Alzheimer's type; details: cited from earlier work
# [8] = test system: patients with neurodegenerative disorders; details: cited from earlier work
# [9] = test system: hyperkinetic children, children with attention deficit disorder (ADD); details: in vivo; cited from earlier work
# autistic children = details: small double-blind, placebo-controlled study; cited from earlier work
# [10] = test system: autistic spectrum disorders; details: in vivo; cited from earlier work
# autism = details: in vivo; cited from earlier work
# [11] = Cohort 1 (up to 10 mg/day), LOCF
# [12] = Cohort 2 (up to 20 mg/day), LOCF
molecule,measurement,setting,value
"CC12CC3CC(C)(C1)CC(N)(C3)C2.Cl [memantine, 1-amino-3,5-dimethyladamantane hydrochloride]",CGI-ADHD-S: patients considered borderline or markedly ill,[1],75%
same,Tolerability in patients with ADHD,"[2]; 8-week open-label treatment, up to 10 or 20 mg/day",well tolerated
same,Patients discontinued for insufficient therapeutic efficacy,"[2]; Cohort 1, 8 patients, all discontinued prior to week 8",7
same,Behavior and symptomology of combined type ADHD (in words),[2]; Cohort 2 (up to 20 mg/day),demonstrated improvements
same,Patients discontinued for insufficient therapeutic efficacy,"[2]; Cohort 2, 8 patients, 4 completed the study",3
same,Efficacy after 8 weeks of treatment (in words),[2]; the 25% of patients completing the study,improvement in two efficacy parameters was observed
same,Bioavailability after an oral dose,"[3]; adult humans, oral",100%
same,CSF/serum ratio,[3]; adult humans,0.52
same,Metabolism,[3]; adult humans,minimal
same,"Effect of food, sex or age on pharmacokinetic profile",[3]; in vivo,not affected
same,Solubility,[4],highly soluble
same,Inhibition of CYP 450 isoenzymes,[5],does not inhibit
same,Affinity for the NMDA receptor,NMDA receptor,low to moderate
same,"ADHD-IV-RS change from baseline, Week 4 (mean)",[6]; [11],−3.3
same,"ADHD-IV-RS change from baseline, Week 8 (mean ± SD)",[6]; [11],−3.8 ± 2.31
same,"ADHD-IV-RS score, Week 4 (mean ± SD)",[6]; [11],42.8 ± 8.33
same,"ADHD-IV-RS score, Week 8 (mean ± SD)",[6]; [11],40.9 ± 8.53
same,"ADHD-IV-RS change from baseline, Week 4 (mean ± SD)","[6]; Cohort 1 (up to 10 mg/day), OC",−3.5 ± 2.38
same,"ADHD-IV-RS score, Week 4 (mean ± SD)","[6]; Cohort 1 (up to 10 mg/day), OC",42.8 ± 8.33
same,"ADHD-IV-RS change from baseline, Week 4 (mean)",[6]; [12],−10.9
same,"ADHD-IV-RS change from baseline, Week 8 (mean ± SD)",[6]; [12],−9 ± 10.00
same,"ADHD-IV-RS score, Week 4 (mean ± SD)",[6]; [12],31.3 ± 13.05
same,"ADHD-IV-RS score, Week 8 (mean ± SD)",[6]; [12],32.9 ± 12.76
same,"ADHD-IV-RS change from baseline, Week 4 (mean ± SD)","[6]; Cohort 2 (up to 20 mg/day), OC",−11. ± 59.65
same,"ADHD-IV-RS change from baseline, Week 8 (mean ± SD)","[6]; Cohort 2 (up to 20 mg/day), OC",−16.5 ± 8.19
same,"ADHD-IV-RS score, Week 4 (mean ± SD)","[6]; Cohort 2 (up to 20 mg/day), OC",29.5 ± 13.32
same,"ADHD-IV-RS score, Week 8 (mean ± SD)","[6]; Cohort 2 (up to 20 mg/day), OC",22.3 ± 8.66
same,Effect on ADHD-IV-RS (in words),"[6]; Cohort 2, end of 8 weeks, OC analysis",showed improvement
same,"Cognitive, functional and global assessments","[7]; 2 US studies, outpatients ages 50-93, moderate to severe Alzheimer's dementia",significant improvement
same,Care dependency and global change relative to placebo,"[7]; study 9403, Latvian nursing home patients, Alzheimer's disease or vascular dementia (MMSE<10)",significant improvement
same,Safety and tolerability profile,[8]; 2297 patients in 27 clinical trials,acceptable
same,Most common adverse events,"[8]; clinical trials, relatively rare","dizziness, headache, constipation, and confusion"
"NC12CC3CC(CC(C3)C1)C2 [amantadine, 1-aminoadamantane]",Effects in hyperkinetic children and children with ADD,[9],favorable effects
same,Measures of hyperactivity and irritability,autistic children,statistically significant improvement
Cc1nc2n(c(=O)c1CCN1CCC(c3noc4cc(F)ccc34)CC1)CCCC2 [risperidone],Adverse effects associated with treatment,[10],"weight gain, increased appetite, fatigue, drowsiness, tremor and drooling"
secretin: a synthetic form of the natural human hormone secretin developed by RepliGen for the potential treatment of autism,Autistic behavior compared to placebo,autism,did not demonstrate significant improvement

# Source: patent publication US20100081723A1, “Memantine For The Treatment Of Childhood Behavioral Disorders” (priority 2004, published 2010)
